Data as given in patent US9681664B2, “Macrocyclic picolinamides as fungicides” (Dow Agrosciences LLC, priority 2012, dated 2017).
Read-outs that look alike come from different tables or passages of the source.

Assays:
[1] = tested on: Mycosphaerella graminicola; Anamorph: Septoria tritici; test: Leaf blotch of wheat (SEPTTR) disease control on wheat seedlings; assay type: in vivo; settings: Zymoseptoria tritici, 100 ppm
In short: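 Wheat seedlings (Yuma, first leaf emerged) sprayed to run-off with compound in acetone/water with 110 ppm Triton X-100, or track-sprayed as EC with 0.1% Trycol 5941. Septoria tritici spores inoculated before or after treatment. Dew chambers, then 20 °C greenhouse. Percent disease control derived from severity (0–100%) relative to untreated plants.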

[2] = tested on: Puccinia triticina; Synonym: Puccinia recondite f. sp. tritici; test: Wheat brown rust (PUCCRT) disease control on wheat seedlings; assay type: in vivo; settings: Puccinia triticina, 100 ppm
In short: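 Acetone solutions diluted in nine volumes of water with 110 ppm Triton X-100 sprayed to run-off on first-leaf Yuma wheat seedlings (track spray: EC with 0.1% Trycol 5941). Puccinia triticina spores inoculated before or after treatment; overnight dark dew at 22° C., 100% RH, then greenhouse at 24° C. for disease development.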

[3] = 24 h, High volume application, 1 Day Protectant, read-out: SEPTTR 1DP disease control
[4] = 72 h, High volume application, 3 Day Curative, read-out: SEPTTR 3DC disease control
[5] = 24 h, High volume application, 1 Day Protectant, read-out: PUCCRT 1DP disease control
[6] = 72 h, High volume application, 3 Day Curative, read-out: PUCCRT 3DC disease control

In the case of `COc1ccnc(C(=O)N[C@H]2CCC[C@H](OCC(C)C)[C@@H](OC3CCCCC3)[C@H](C)OC2=O)c1O` [F210], the pest or weed control at 100 ppm [1, 3] is reported as 80 to 100%, the pest or weed control at 100 ppm [1, 4] is reported as 80 to 100% and the pest or weed control at 100 ppm [2, 5] is reported as 80 to 100%. The pest or weed control at 100 ppm [2, 6] was 80 to 100%.
`COc1ccnc(C(=O)N[C@H]2CCC[C@H](OC3CCCCC3)[C@@H](OCC(C)C)[C@H](C)OC2=O)c1O` [F211] was tested, and the pest or weed control at 100 ppm [1, 3] was 80 to 100%, the pest or weed control at 100 ppm [1, 4] was 80 to 100% and the pest or weed control at 100 ppm [2, 5] was 80 to 100%. The pest or weed control at 100 ppm [2, 6] was 80 to 100%.
With `COc1ccnc(C(=O)N[C@H]2CCC[C@H](OCC(C)C)[C@@H](OCCCc3ccccc3)[C@H](C)OC2=O)c1OC(C)=O` [F214] the pest or weed control at 100 ppm [1, 3] was 80 to 100%, the pest or weed control at 100 ppm [1, 4] was 80 to 100% and the pest or weed control at 100 ppm [2, 5] was 80 to 100%. For the same molecule, the pest or weed control at 100 ppm [2, 6] was 80 to 100%.
Molecule `COCCC(=O)Oc1c(OC)ccnc1C(=O)N[C@H]1CCC[C@H](OCC(C)C)[C@@H](OCCCc2ccccc2)[C@H](C)OC1=O` [F215] has a pest or weed control at 100 ppm [1, 3] of 80 to 100%, a pest or weed control at 100 ppm [1, 4] of 80 to 100% and a pest or weed control at 100 ppm [2, 5] of 80 to 100%. For the same molecule, the pest or weed control at 100 ppm [2, 6] was 80 to 100%.
In the case of `COc1ccnc(C(=O)N[C@H]2CCC[C@H](OCC(C)C)[C@@H](OCCCC(F)(F)F)[C@H](C)OC2=O)c1OC(C)=O` [F216], the pest or weed control at 100 ppm [1, 3] is reported as 80 to 100%, the pest or weed control at 100 ppm [1, 4] is reported as 80 to 100% and the pest or weed control at 100 ppm [2, 5] is reported as 80 to 100%. For the same molecule, the pest or weed control at 100 ppm [2, 6] was 80 to 100%.
For `COc1ccnc(C(=O)N[C@H]2CCC[C@H](OCC(C)C)[C@@H](OC(=O)C3CCCC3)[C@H](C)OC2=O)c1OCOC(=O)C(C)C` [F218], the pest or weed control at 100 ppm [1, 3] was 80 to 100%, the pest or weed control at 100 ppm [1, 4] was 0 to 80% and the pest or weed control at 100 ppm [2, 5] was 80 to 100%. It also gave a pest or weed control at 100 ppm [2, 6] of 80 to 100%.
Work on `COc1ccnc(C(=O)N[C@H]2CCC[C@H](OCCCc3ccccc3)[C@@H](OCC(C)C)[C@H](C)OC2=O)c1O` [F219] yielded a pest or weed control at 100 ppm [1, 3] of 80 to 100%, a pest or weed control at 100 ppm [1, 4] of 0 to 80% and a pest or weed control at 100 ppm [2, 5] of 80 to 100%. The pest or weed control at 100 ppm [2, 6] was 80 to 100%.
`C=C(C)CO[C@H]1CCC[C@H](NC(=O)c2nccc(OC)c2O)C(=O)O[C@@H](C)[C@@H]1OCC(C)C` [F220] was tested, and the pest or weed control at 100 ppm [1, 3] was 80 to 100%, the pest or weed control at 100 ppm [1, 4] was 80 to 100% and the pest or weed control at 100 ppm [2, 5] was 80 to 100%. It also gave a pest or weed control at 100 ppm [2, 6] of 80 to 100%.
In the case of `COc1ccnc(C(=O)N[C@H]2CCC[C@H](OC(=O)C3CCCC3)[C@@H](OCC(C)C)[C@H](C)OC2=O)c1O` [F221], the pest or weed control at 100 ppm [1, 3] is reported as 80 to 100%, the pest or weed control at 100 ppm [1, 4] is reported as 0 to 80% and the pest or weed control at 100 ppm [2, 5] is reported as 80 to 100%. The pest or weed control at 100 ppm [2, 6] was 0 to 80%.
For `COc1ccnc(C(=O)N[C@H]2CCC[C@H](OCCCc3ccccc3)[C@@H](OCC(C)C)[C@H](C)OC2=O)c1OCOC(C)=O` [F222], the pest or weed control at 100 ppm [1, 3] was 80 to 100%, the pest or weed control at 100 ppm [1, 4] was 80 to 100% and the pest or weed control at 100 ppm [2, 5] was 80 to 100%. The pest or weed control at 100 ppm [2, 6] was 80 to 100%.
`COc1ccnc(C(=O)N[C@H]2CCC[C@H](OC(=O)C3CCCC3)[C@@H](OCC(C)C)[C@H](C)OC2=O)c1OCOC(C)=O` [F223] gave a pest or weed control at 100 ppm [1, 3] of 80 to 100%, a pest or weed control at 100 ppm [1, 4] of 80 to 100% and a pest or weed control at 100 ppm [2, 5] of 80 to 100%. It also gave a pest or weed control at 100 ppm [2, 6] of 80 to 100%.
`COc1ccnc(C(=O)N[C@H]2CCC[C@H](OCCCc3ccccc3)[C@@H](OC3CCCC3)[C@H](C)OC2=O)c1O` [F224] showed a pest or weed control at 100 ppm [1, 3] of 0 to 80%, a pest or weed control at 100 ppm [1, 4] of 0 to 80% and a pest or weed control at 100 ppm [2, 5] of 80 to 100%. For the same molecule, the pest or weed control at 100 ppm [2, 6] was 0 to 80%.
`COc1ccnc(C(=O)N[C@H]2CCC[C@H](OCCCc3ccccc3)[C@@H](OC3CCCC3)[C@H](C)OC2=O)c1OCOC(C)=O` [F225] showed a pest or weed control at 100 ppm [1, 3] of 80 to 100%, a pest or weed control at 100 ppm [1, 4] of 80 to 100% and a pest or weed control at 100 ppm [2, 5] of 80 to 100%. For the same molecule, the pest or weed control at 100 ppm [2, 6] was 80 to 100%.
For `COc1ccnc(C(=O)N[C@H]2CCC[C@H](Oc3ccccc3)[C@@H](OC(=O)C3CCCC3)[C@H](C)OC2=O)c1O` [F232], the pest or weed control at 100 ppm ([1]; 24 h, Wheat Leaf Blotch, 1 Day Protectant, high volume application, read-out: Disease Control SEPTTR 1 DP 100 ppm) was 80 to 100%, the pest or weed control at 100 ppm ([1]; 72 h, Wheat Leaf Blotch, 3 Day Curative, high volume application, read-out: Disease Control SEPTTR 3 DC 100 ppm) was 0 to 80% and the pest or weed control at 100 ppm ([2]; 24 h, Wheat Brown Rust, 1 Day Protectant, high volume application, read-out: Disease Control PUCCRT 1 DP 100 ppm) was 80 to 100%. The pest or weed control at 100 ppm ([2]; 72 h, Wheat Brown Rust, 3 Day Curative, high volume application, read-out: Disease Control PUCCRT 3 DC 100 ppm) was 80 to 100%.
